Consider 21 compounds from patent US11306078B2, “Piperidine CXCR7 receptor modulators” (IDORSIA PHARMACEUTICALS LTD., priority 2016, dated 2022).

This experiment deals with human chemokine receptor CXCR7 (Homo sapiens (Human), UniProt P25106). Briefly: Tango CXCR7-bla U2OS beta-arrestin recruitment assay (beta-lactamase reporter, FRET), antagonism of CXCL12/SDF1-α.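 Further: compounds preincubated 15 min before CXCL12 addition, then 22 h at 37 °C, FRET emission ratio read with CCF4-AM substrate after 2 h.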 It is filed as cell-based. The conditions noted are these: antagonistic effect on CXCR7; Tango CXCR7-bla U2OS cells, CXCL12/SDF1-α at its EC80. (In general: Recruitment of arrestin is a read-out of receptor activation apart from second messengers.)
human chemokine receptor CXCR7, sequence (P25106 whole entry): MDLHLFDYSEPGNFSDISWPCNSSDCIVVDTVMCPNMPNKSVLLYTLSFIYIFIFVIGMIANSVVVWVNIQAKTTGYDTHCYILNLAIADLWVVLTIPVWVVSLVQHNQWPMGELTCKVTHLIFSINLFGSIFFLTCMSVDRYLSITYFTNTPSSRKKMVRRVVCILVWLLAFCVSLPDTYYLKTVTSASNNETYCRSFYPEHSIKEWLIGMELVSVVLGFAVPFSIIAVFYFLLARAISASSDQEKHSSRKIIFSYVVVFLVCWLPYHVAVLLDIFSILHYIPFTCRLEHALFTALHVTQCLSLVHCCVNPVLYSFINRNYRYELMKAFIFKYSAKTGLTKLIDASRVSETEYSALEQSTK
As a reminder, the IC50 is the concentration needed to halve the response being measured. A higher IC50 goes with weaker potency. `O=C(N[C@@H]1CCN(C2CCCCC2)C[C@H]1C(=O)NCc1nccs1)c1cc(-c2ccc(F)cc2F)on1` (racemic) [Example 1.051, rac-(3R*,4R*)-1-Cyclohexyl-4-{[5-(2,4-difluoro-phenyl)-isoxazole-3-carbonyl]-amino}-piperidine-3-carboxylic acid (thiazol-2-ylmethyl)-amide] registered an IC50 of 49 nM.

The compound `C[C@@H](NC(=O)[C@@H]1CN(C2CCCCC2)CC[C@H]1NC(=O)c1cc(-c2c(F)cc(F)cc2F)on1)c1ccccn1` (single isomer, unassigned) [Example 1.121b, (3R*,4R*)-1-Cyclohexyl-4-{[5-(2,4,6-trifluoro-phenyl)-isoxazole-3-carbonyl]-amino}-piperidine-3-carboxylic acid ((R)-1-pyridin-2-yl-ethyl)-amide] had an IC50 of 2 nM. The same measure for `O=C(N[C@@H]1CCN(C2CCCCC2)C[C@H]1C(=O)NC1(c2ccc(F)cn2)CC1)c1cc(-c2c(F)cc(F)cc2F)on1` (racemic) [Example 1.143, rac-(3R*,4R*)-1-Cyclohexyl-4-{[5-(2,4,6-trifluoro-phenyl)-isoxazole-3-carbonyl]-amino}-piperidine-3-carboxylic acid [1-(5-fluoro-pyridin-2-yl)-cyclopropyl]-amide]: 719 nM. The same measure for `CCN1CC[C@@H](NC(=O)c2cc(-c3ccc(F)cc3F)on2)[C@H](C(=O)N(C)CCc2ccccc2)C1` [Example 2.004]: 118 nM. The same measure for `O=C(N[C@H]1CCN(C2CCCC2)C[C@@H]1C(=O)NC1(c2ncccn2)CC1)c1cc(-c2c(F)cc(F)cc2F)on1` (single isomer, unassigned) [Example 1.176a, (3S,4S)-1-Cyclopentyl-4-{[5-(2,4,6-trifluoro-phenyl)-isoxazole-3-carbonyl]-amino}-piperidine-3-carboxylic acid (1-pyrimidin-2-yl-cyclopropyl)-amide or (3R,4R)-1-Cyclopentyl-4-{[5-(2,4,6-trifluoro-phenyl)-isoxazole-3-carbonyl]-amino}-piperidine-3-carboxylic acid (1-pyrimidin-2-yl-cyclopropyl)-amide]: 5 nM; for `CN(CCc1ccccc1)C(=O)[C@@H]1CN(CC2CC2)CC[C@H]1NC(=O)c1cc(-c2ccc(F)cc2F)on1` [Example 2.006]: 15 nM; for `O=C(N[C@H]1CCN(C2CCC2)C[C@@H]1C(=O)NC1(c2ncccc2F)CC1)c1cc(-c2ccc(F)cc2F)on1` [Example 4.082]: 20 nM. Regarding `Cc1cccc(CNC(=O)[C@H]2CN(CC3CC3)CC[C@@H]2NC(=O)c2cc(-c3ccc(F)cc3F)on2)n1` [Example 4.064], the midpoint of inhibition, the IC50, lay at 753 nM.

In turn, `C[C@@H]1CCC[C@H]1N1CC[C@@H](NC(=O)c2cc(-c3ccc(F)cc3F)no2)[C@H](C(=O)N[C@H](C)c2ccccn2)C1` (relative stereo) [Example 1.155, (3R*,4R*)-4-{[3-(2,4-Difluoro-phenyl)-isoxazole-5-carbonyl]-amino}-1-((1RS,2RS)-2-methyl-cyclopentyl)-piperidine-3-carboxylic acid ((R)-1-pyridin-2-yl-ethyl)-amide] returned an IC50 of 315 nM.

Compound `CC(C)(CNC(=O)[C@@H]1CN(C2CCC2)CC[C@H]1NC(=O)c1cc(-c2ccc(F)cc2F)on1)c1ccccc1Cl` [Example 4.091] showed an IC50 of 134 nM. Against the preceding compound, the IC50 is about 2.4-fold lower.

Turning to `CN(C)C(=O)[C@@H]1CN(CC2CCCC2)CC[C@H]1NC(=O)c1cc(-c2ccc(F)cc2F)on1` [Example 2.03], half-maximal inhibition (IC50) was put at 74 nM. The same measure for `Cc1nc(NC(=O)[C@@H]2CN(C3CCCCC3)CC[C@H]2NC(=O)c2cc(-c3ccc(F)cc3F)on2)sc1C` (racemic) [Example 1.065, rac-(3R*,4R*)-1-Cyclohexyl-4-{[5-(2,4-difluoro-phenyl)-isoxazole-3-carbonyl]-amino}-piperidine-3-carboxylic acid (4,5-dimethyl-thiazol-2-yl)-amide]: 567 nM; for `O=C(N[C@H]1CCN(CC2CC2)C[C@@H]1C(=O)NC1(c2ncccn2)CC1)c1cc(-c2ccc(F)cc2F)no1` [Example 7.006, (3S,4S)-1-Cyclopropylmethyl-4-{[3-(2,4-difluoro-phenyl)-isoxazole-5-carbonyl]-amino}-piperidine-3-carboxylic acid (1-pyrimidin-2-yl-cyclopropyl)-amide]: 8 nM; for `O=C(N[C@@H]1CCN(CC2CC2)C[C@H]1C(=O)NC1(c2ncccn2)CC1)c1cc(-c2cccc(F)c2F)on1` (racemic) [Example 1.199, rac-(3R*,4R*)-1-Cyclopropylmethyl-4-{[5-(2,3-difluoro-phenyl)-isoxazole-3-carbonyl]-amino}-piperidine-3-carboxylic acid (1-pyrimidin-2-yl-cyclopropyl)-amide]: 273 nM. The same measure for `CC(C)(CNC(=O)[C@@H]1CN(C2CCC2)CC[C@H]1NC(=O)c1cc(-c2ccc(F)cc2F)on1)c1ccccn1` [Example 4.087]: 342 nM; for `Cc1cc(CNC(=O)[C@@H]2CN(C3CCCCC3)CC[C@H]2NC(=O)c2cc(-c3ccc(F)cc3F)on2)no1` (racemic) [Example 1.022, rac-(3R*,4R*)-1-Cyclohexyl-4-{[5-(2,4-difluoro-phenyl)-isoxazole-3-carbonyl]-amino}-piperidine-3-carboxylic acid (5-methyl-isoxazol-3-ylmethyl)-amide]: 198 nM. The same measure for `CC1(NC(=O)[C@@H]2CN(C3CCCCC3)CC[C@H]2NC(=O)c2cc(-c3ccc(F)cc3F)on2)CC(F)(F)C1` (relative stereo) [Example 1.087, rac-(3R*,4R*)-1-Cyclohexyl-4-{[5-(2,4-difluoro-phenyl)-isoxazole-3-carbonyl]-amino}-piperidine-3-carboxylic acid (3,3-difluoro-1-methyl-cyclobutyl)-amide]: 943 nM. `COCCNC(=O)[C@@H]1CN(C2CCCCC2)CC[C@H]1NC(=O)c1cc(-c2ccc(F)cc2F)on1` (racemic) [Example 1.006, rac-(3R*,4R*)-1-Cyclohexyl-4-{[5-(2,4-difluoro-phenyl)-isoxazole-3-carbonyl]-amino}-piperidine-3-carboxylic acid (2-methoxy-ethyl)-amide] returned an IC50 of 414 nM. This IC50 is about 2.3-fold lower than that of the compound before.

Take `C[C@@H](NC(=O)[C@H]1CN(C2CCCCC2)CC[C@@H]1NC(=O)c1cc(-c2ccc(F)cc2F)no1)c1ccccn1` (single isomer, unassigned) [Example 1.125a, (3S,4S)-1-Cyclohexyl-4-{[3-(2,4-difluoro-phenyl)-isoxazole-5-carbonyl]-amino}-piperidine-3-carboxylic acid ((R)-1-pyridin-2-yl-ethyl)-amide or (3R,4R)-1-Cyclohexyl-4-{[3-(2,4-difluoro-phenyl)-isoxazole-5-carbonyl]-amino}-piperidine-3-carboxylic acid ((R)-1-pyridin-2-yl-ethyl)-amide]: the IC50 is 30 nM. This IC50 is about 14-fold lower than that of the compound before. The result for `CO[C@@H]1CCCC[C@H]1N1CC[C@@H](NC(=O)c2cc(-c3ccc(F)cc3F)on2)[C@H](C(=O)N(C)C)C1` [Example 2.033] reads 132 nM; that for `C[C@@H](NC(=O)[C@H]1CN(C2CCC2)CC[C@@H]1NC(=O)c1cc(-c2ccc(F)cc2F)on1)c1ncccc1F` [Example 4.098], 18 nM.
